Where “and” joins values, the source holds several entries; their conditions need not be identical. Identical values can stand only once.

The source of these data is publication PMC12177781, “Chalcogen Derivatives for the Treatment of African Trypanosomiasis: Biological Evaluation of Thio- and Seleno-Semicarbazones and Their Azole Derivatives” (ACS Omega, 2025).

Series [1] in a line: HEK293 cytotoxicity, CellTiter-Glo, 48 h. As to conditions: human, HEK293 cells. For orientation: Cellular ATP, detected with luciferase, serves as a proxy for viable cell number.
For series [2], the system named is HEK293 cells. Kind of series: HEK293 cytotoxicity, CellTiter-Glo, 48 h. As to conditions: Homo sapiens, HEK293, read-out: HEK293 inhibition (%).
Series [3] in a line: HepG2 cytotoxicity, CellTiter-Glo, 48 h. The following applies: human, HepG2 cells.
Series [4] concerns HepG2 cells. As to the kind of experiment: HepG2 cytotoxicity, CellTiter-Glo, 48 h. The following applies: Homo sapiens, HepG2, read-out: HepG2 inhibition (%).
In series [5] the test system is TbrCATL. The following applies: cited from earlier work.
The subject of series [6] is hCatL. As to conditions: E-64, from ref. (number not given); cited from earlier work.
The target in series [7] is T. brucei cathepsin L-like protease (TbrCATL) (Trypanosoma brucei rhodesiense, UniProt Q95PM0). Kind of series: TbrCATL inhibition assay, Z-FR-AMC substrate. The format is biochemical. The following applies: for SI TbrCATL: IC50 hCatL/IC50 TbrCATL; for TbrCATL inhibition (%): at 10 μM; for inhibition at 10 µM: read-out: TbrCATL inhibition (%), at 10 μM; for IC50: IC50 TbrCATL (nM), mean ± SD, two experiments in triplicate (n = 6). Here is the method: (§1) All experiments were performed in a 384-well black microplate, using a Synergy HTX (Biotek) plate reader at 25 °C with absorption/emission wavelengths of 360/460 nm. Assays were performed in triplicate wells and DMSO was used as a vehicle control. Enzyme activity was measured and normalized to DMSO controls, and the inhibitor E-64 (10 μM) was used as a positive control for all assays. Experiments were performed in triplicate, with at least two independent assays (n = 6 data points). IC50 values were determined through nonlinear regression. The data obtained were analyzed using GraphPad Prism 9.0 (GraphPad Software, La Jolla, California, US).
The screening assay was performed using 0.5 nM of TbrCATL diluted in 0.1 M sodium acetate, 1 mM dithiothreitol (DTT), and 0.01% Triton X-100, pH 5.5. TbrCATL was expressed and purified as described. Enzyme the compound (10 μM), were incubated for 10 min at room temperature. Then the substrate, Z-Phe-Arg-amidomethylcoumarin (Z-FR-AMC; Sigma-Aldrich, C9521), was added (30 μL diluted in the same assay buffer) to yield a final concentration of 2.5 μM and the assay allowed to proceed for 10 min. […] For those compounds inhibiting enzyme activity by >85%, DR assays were performed over 15 2-fold serial dilutions starting at 0.5 or 20 μM.

The test system of series [8] is T. brucei brucei Lister 427. Kind of series: T. b. brucei Lister 427 bloodstream-form growth inhibition, SYBR Green viability assay, 72 h. The format is cell-based, Trypanosoma brucei brucei. As to conditions: for EC50: Trypanosoma brucei, three independent experiments in duplicate (n = 6) ± SD, read-out: EC50 T. brucei; for T. brucei inhibition (%): growth inhibition at 10 µM, ± SD.

For series [9], the system named is cruzain (Cz). As to conditions: cited from earlier work.
Series [10] is described as follows: in vitro. As to conditions: human, CC50 HEK293 (μM).
The target of series [11] is T1, human cathepsin L (hCatL) (Homo sapiens, UniProt P07711).
T1 construct: purchased R&D Systems 952-CY
Kind of series: hCatL inhibition assay, Z-FR-AMC substrate. The format is biochemical. The following applies: mean ± SD, two experiments in triplicate (n = 6). How it is done:
as §1
Recombinant hCatL was purchased from R&D Systems (952-CY) and activated according to the manufacturers protocol. This enzyme, hCatL, is used to test compounds’ selectivity because it is the human homologue of TbrCATL. The assay was modified from, using 25 pM of the enzyme diluted in 40 mM sodium acetate, 5 mM DTT, 100 mM NaCl, 1 mM EDTA and 0.01% Triton X-100, pH 5.5. Enzyme and compound (10 μM), were incubated for 30 min at room temperature. Then Z-FR-AMC was added (30 μL diluted in the same assay buffer) to yield a final concentration of 25 μM and the assay allowed to proceed for 10 min. DR assays were performed over 15 2-fold serial dilutions starting at 0.5 or 20 μM.

The nature of series [12]: in vitro. As to conditions: human, CC50 HepG2 (μM).
In series [13] the test system is C2C12 cells. The following applies: read-out: Toxicity CC50 C2C12 cells; cited from earlier work.
For series [14], the system named is T. cruzi CAI/72. As to conditions: cited from earlier work.
The conditions of series [15]: pharmacokinetic study; ref previous work; cited from earlier work.
Series [16] in a line: DPPH radical scavenging (antioxidant) assay. As to conditions: after 2 h, mean ± SEM. In general terms: Loss of DPPH colour is used to gauge radical scavenging.
Series [17] concerns HepG2 cells. As to conditions: human.
Series [18] relates to HEK293 cells. As to conditions: human.

T1 sequence (P07711 114-333): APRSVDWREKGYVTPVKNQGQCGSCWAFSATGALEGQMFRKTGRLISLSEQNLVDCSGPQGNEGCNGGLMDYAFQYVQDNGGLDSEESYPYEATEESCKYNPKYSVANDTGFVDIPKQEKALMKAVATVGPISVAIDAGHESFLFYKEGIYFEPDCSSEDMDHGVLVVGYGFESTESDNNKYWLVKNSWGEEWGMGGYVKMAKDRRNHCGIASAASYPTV
Chain of T. brucei cathepsin L-like protease (TbrCATL) (Q95PM0 1-450): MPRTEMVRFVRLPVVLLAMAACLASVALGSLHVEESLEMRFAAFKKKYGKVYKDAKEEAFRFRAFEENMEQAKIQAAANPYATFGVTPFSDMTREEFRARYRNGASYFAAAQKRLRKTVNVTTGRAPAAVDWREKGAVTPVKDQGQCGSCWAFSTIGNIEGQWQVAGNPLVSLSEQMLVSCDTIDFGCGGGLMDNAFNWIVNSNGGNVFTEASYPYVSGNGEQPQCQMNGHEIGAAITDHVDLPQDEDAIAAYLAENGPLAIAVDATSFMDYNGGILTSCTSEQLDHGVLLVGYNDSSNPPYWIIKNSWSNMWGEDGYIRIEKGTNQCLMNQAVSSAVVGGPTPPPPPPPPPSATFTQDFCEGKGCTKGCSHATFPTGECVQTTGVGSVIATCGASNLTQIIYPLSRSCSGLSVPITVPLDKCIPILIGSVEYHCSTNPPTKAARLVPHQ

In the case of `CC(C)C[C@H](NC(=O)[C@H](Cc1ccccc1)NC(=O)c1cnccn1)B(O)O` [Bortezomib, reference compound], the CC50 at 48 h is 0.015 ± 0.002 µM in [1] and 0.015 ± 0.003 µM in series [3]. Moreover, the inhibition at 10 µM in series [2] was determined as 100 ± 2%; in series [4] it was 100 ± 1%.

As to `CC(C)C[C@H](NC(=O)[C@H]1O[C@@H]1C(=O)O)C(=O)NCCCCN=C(N)N` [Compound E-64, E-64], the IC50 was 0.0031 µM in [5] and 0.03 ± 0.004 µM in series [6]. Also, in series [7], the “SI TbrCATL” value turned out to be 10.

`C/C(=N\Nc1nc(C)c[se]1)c1cccc([N+](=O)[O-])c1` [SeC5]: the inhibition at 10 µM in series [2] was 81 ± 7%; in series [4], 77 ± 6%; in series [7] it was over 85%. Besides, the EC50 in [8] is 10.5 ± 1.02 µM; in series [14] it was 0.31 ± 0.18 µM. Moreover, the “T. brucei inhibition (%)” value in series [8] (10 µM) is listed as 100 ± 2%; in [8] (listed as Se C5, 10 µM), over 70%. Also, the 50% inhibitory concentration (IC50) in series [9] is 0.00899 ± 0.00556 µM; in [11], 0.175 ± 0.0437 µM. The CC50 in series [10] was 9 ± 1.36 µM; in series [12] it was 11.3 ± 0.97 µM; in series [13], over 10 µM. Besides, the oral bioavailability result in series [15] was “favorable oral bioavailability”. Further, the “% inhibited DPPH” value in [16] (0.015 mg/ml) stood at 77.33 ± 0.88%; in series [16] (0.03 mg/ml), 78.00 ± 1.73%; in series [16] (0.06 mg/ml), 78.33 ± 1.76%. Moreover, the “SI TbrCATL” value in series [7] worked out at 25. Further, the “TbrCATL inhibition (%)” value in series [7] is reported as 98.02%.

As for `C/C(=N\NC(N)=[Se])c1ccc(Br)cc1` [SeO3], the inhibition at 10 µM is 100% in [2], 71 ± 15% in series [4] and over 85% in series [7]. The EC50 was 0.47 ± 0.02 µM in series [8] and 0.77 ± 0.17 µM in series [14]. In addition, the “T. brucei inhibition (%)” value in series [8] (10 µM) is given as 100 ± 2%; in series [8] (listed as Se O3, 10 µM), over 70%. Besides, the concentration for half-maximal inhibition (IC50) in series [9] was 0.0143 ± 0.00357 µM; in series [11], 0.00987 ± 0.00063 µM; in series [7], 9.87 nM and 1.22 nM. Also, the CC50 in [10] is 2.7 µM; in series [12], 2.82 µM; in [13] it was over 10 µM; in series [17] it was 2.7 ± 0.16 µM; in [18] it was 2.82 ± 0.11 µM. In addition, the “% inhibited DPPH” value in series [16] (0.015 mg/ml) turned out to be 23.00 ± 13.43%; in series [16] (0.03 mg/ml), 75.00 ± 2.65%; in series [16] (0.06 mg/ml) it was 77.67 ± 1.45%. Further, in series [7], the “SI TbrCATL” value amounted to 8. For the same compound, the “TbrCATL inhibition (%)” value in [7] was 99.15%.

Consider `C/C(=N\NC(N)=[Se])c1cccc([N+](=O)[O-])c1` [SeO5], for which the inhibition at 10 µM in [2] is 100%; in series [4], 85%; in series [7], over 85%. In addition, the concentration for a half-maximal effect (EC50) in [8] stood at 5.83 ± 0.72 µM. Further, the “T. brucei inhibition (%)” value is given as 100 ± 1% in series [8] (10 µM) and over 70% in series [8] (listed as Se O5, 10 µM). Moreover, the 50% inhibitory concentration (IC50) is 0.00091 ± 0.00018 µM in series [9]; 0.00051 ± 8e-05 µM in series [11]; 0.51 nM and 0.3 nM in [7]. The CC50 in series [10] was 2.29 ± 0.26 µM; in [12], 5.54 ± 1.47 µM; in [13], over 10 µM. The “% inhibited DPPH” value is listed as 22.00 ± 17.67% in series [16] (0.015 mg/ml), 63.33 ± 6.89% in series [16] (0.03 mg/ml) and 75.67 ± 1.67% in [16] (0.06 mg/ml). In series [7], the “SI TbrCATL” value came to 2. Besides, in series [7], the “TbrCATL inhibition (%)” value was found to be 101.47%.

By inhibition is commonly meant the change of the read-out against control, counted positive when it falls. The IC50 is the concentration needed to halve the response being measured. As usually defined, the EC50 is the concentration needed to bring the measured effect to its halfway point.
